In patent publication US20230085307A1, “PYRIDAZINONE COMPOUND AND HERBICIDE” (NISSAN CHEMICAL CORPORATION, priority 2019, published 2023):

Columns and labels:
[1] = system: late watergrass; test: Test Example 2: herbicidal activity, application during weed generation under submerged conditions (Table 17, symbol A); type: in vivo, late watergrass (Echinochloa oryzicola); details: AAH 320 g/ha; application during weed generation, submerged conditions
Method in brief: (§1)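 Herbicide emulsion, diluted with water to the chosen amount, is applied onto 4 cm floodwater over alluvial soil where the weeds were co-sown and raised at 25–30° C. Application timing: 1–2 leaves. Assessment: three weeks afterwards.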

[2] = system: Japanese bulrush; test: Test Example 2: herbicidal activity, application during weed generation under submerged conditions (Table 17, symbol B); type: in vivo, Japanese bulrush (Schoenoplectus juncoides); details: AAH 320 g/ha; application during weed generation, submerged conditions
Method in brief: as §1

[3] = system: barnyard grass; test: Test Example 3: herbicidal effect by foliage application, Wagner pot (Table 18, symbol H); type: in vivo, barnyard grass (Echinochloa crus-galli); details: amount of applied herbicide 320 g/ha
Method in brief: (§2)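 Plants were sown in alluvial soil held under 0.1–0.5 cm standing water and grown 14 days in a greenhouse at 25–30 °C. An emulsifiable formulation, water-diluted to the set dose, was then sprayed onto the foliage, and effects were scored three weeks later using previously defined criteria.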

[4] = system: rice flat sedge; test: Test Example 3: herbicidal effect by foliage application, Wagner pot (Table 18, symbol E); type: in vivo, rice flat sedge (Cyperus iria); details: amount of applied herbicide 320 g/ha
Method in brief: as §2

[5] = system: southern crabgrass; test: Test Example 4: herbicidal effect by soil treatment (Table 19, symbol F); type: in vivo, southern crabgrass (Digitaria ciliaris); details: amount of applied herbicide 320 g/ha
Method in brief: (§3)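 Three weeks of greenhouse growth at 25° C. to 30° C. followed a uniform surface spray of water-diluted emulsion at a predetermined herbicide amount. Seeds had been sown beforehand under about 1.5 cm of sterilized diluvial soil. Grading followed criteria set out in an earlier test.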

[6] = system: green foxtail; test: Test Example 4: herbicidal effect by soil treatment (Table 19, symbol G); type: in vivo, green foxtail (Setaria viridis); details: amount of applied herbicide 320 g/ha
Method in brief: as §3

[7] = system: barnyard grass; test: Test Example 4: herbicidal effect by soil treatment (Table 19, symbol H); type: in vivo, barnyard grass (Echinochloa crus-galli); details: amount of applied herbicide 320 g/ha
Method in brief: as §3

[8] = system: wild oat; test: Test Example 4: herbicidal effect by soil treatment (Table 19, symbol I); type: in vivo, wild oat (Avena fatua); details: amount of applied herbicide 320 g/ha
Method in brief: as §3

[9] = system: Italian ryegrass; test: Test Example 4: herbicidal effect by soil treatment (Table 19, symbol K); type: in vivo, Italian ryegrass (Lolium multiflorum); details: amount of applied herbicide 320 g/ha
Method in brief: as §3

[10] = system: velvetleaf; test: Test Example 4: herbicidal effect by soil treatment (Table 19, symbol M); type: in vivo, velvetleaf (Abutilon theophrasti); details: amount of applied herbicide 320 g/ha
Method in brief: as §3

[11] = system: redroot pigweed; test: Test Example 4: herbicidal effect by soil treatment (Table 19, symbol N); type: in vivo, redroot pigweed (Amaranthus retroflexus); details: amount of applied herbicide 320 g/ha
Method in brief: as §3

[12] = system: lambsquarters; test: Test Example 4: herbicidal effect by soil treatment (Table 19, symbol O); type: in vivo, lambsquarters (Chenopodium album); details: amount of applied herbicide 320 g/ha
Method in brief: as §3

[13] = system: chickweed; test: Test Example 4: herbicidal effect by soil treatment (Table 19, symbol P); type: in vivo, common chickweed (Stellaria media); details: amount of applied herbicide 320 g/ha
Method in brief: as §3

[14] = system: southern crabgrass; test: Test Example 5: herbicidal effect by foliage application, plastic box (Table 20, symbol F); type: in vivo, southern crabgrass (Digitaria ciliaris); details: foliage application, AAH 320 g/ha, evaluated three weeks after application
Method in brief: (§4)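 Plants sown in sterilized diluvial soil and grown 14 days in a greenhouse at 25° C to 30° C, then sprayed on the foliage with the compound's emulsion diluted in water to a predetermined herbicide amount. Injury to weeds and crops scored three weeks after application on a visual rating scale.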

[15] = system: barnyard grass; test: Test Example 5: herbicidal effect by foliage application, plastic box (Table 20, symbol H); type: in vivo, barnyard grass (Echinochloa crus-galli); details: foliage application, AAH 320 g/ha, evaluated three weeks after application
Method in brief: as §4

[16] = system: wild oat; test: Test Example 5: herbicidal effect by foliage application, plastic box (Table 20, symbol I); type: in vivo, wild oat (Avena fatua); details: foliage application, AAH 320 g/ha, evaluated three weeks after application
Method in brief: as §4

[17] = system: blackgrass; test: Test Example 5: herbicidal effect by foliage application, plastic box (Table 20, symbol J); type: in vivo, blackgrass (Alopecurus myosuroides); details: foliage application, AAH 320 g/ha, evaluated three weeks after application
Method in brief: as §4

[18] = system: Italian ryegrass; test: Test Example 5: herbicidal effect by foliage application, plastic box (Table 20, symbol K); type: in vivo, Italian ryegrass (Lolium multiflorum); details: foliage application, AAH 320 g/ha, evaluated three weeks after application
Method in brief: as §4

[19] = system: windgrass; test: Test Example 5: herbicidal effect by foliage application, plastic box (Table 20, symbol L); type: in vivo, windgrass (Apera spica-venti); details: foliage application, AAH 320 g/ha, evaluated three weeks after application
Method in brief: as §4

[20] = system: redroot pigweed; test: Test Example 5: herbicidal effect by foliage application, plastic box (Table 20, symbol N); type: in vivo, redroot pigweed (Amaranthus retroflexus); details: foliage application, AAH 320 g/ha, evaluated three weeks after application
Method in brief: as §4

[21] = system: lambsquarters; test: Test Example 5: herbicidal effect by foliage application, plastic box (Table 20, symbol O); type: in vivo, lambsquarters (Chenopodium album); details: foliage application, AAH 320 g/ha, evaluated three weeks after application
Method in brief: as §4

[22] = system: persian speedwell; test: Test Example 5: herbicidal effect by foliage application, plastic box (Table 20, symbol R); type: in vivo, Persian speedwell (Veronica persica); details: foliage application, AAH 320 g/ha, evaluated three weeks after application
Method in brief: as §4

| SMILES | herbicidal effect rating, A: late watergrass [1] | herbicidal effect rating, B: Japanese bulrush [2] | herbicidal effect on H: barnyard grass [3] | herbicidal effect on E: rice flat sedge [4] | herbicidal effect on F: southern crabgrass [5] | herbicidal effect on G: green foxtail [6] | herbicidal effect on H: barnyard grass [7] | herbicidal effect on I: wild oat [8] | herbicidal effect on K: Italian ryegrass [9] | herbicidal effect on M: velvetleaf [10] | herbicidal effect on N: redroot pigweed [11] | herbicidal effect on O: lambsquarters [12] | herbicidal effect on P: chickweed [13] | F: southern crabgrass, herbicidal effect (criteria 0-5) [14] | H: barnyard grass, herbicidal effect (criteria 0-5) [15] | I: wild oat, herbicidal effect (criteria 0-5) [16] | J: blackgrass, herbicidal effect (criteria 0-5) [17] | K: Italian ryegrass, herbicidal effect (criteria 0-5) [18] | L: windgrass, herbicidal effect (criteria 0-5) [19] | N: redroot pigweed, herbicidal effect (criteria 0-5) [20] | other results |
| --- | --- | --- | --- | --- | --- | --- | --- | --- | --- | --- | --- | --- | --- | --- | --- | --- | --- | --- | --- | --- | --- |
| Cc1nn(C)c(=O)c(-c2c(-c3ccc(OC(F)F)cc3)sc3ccc(F)cc23)c1OC(=S)Sc1ccccc1 [2-298] | 3 (Herbicidal rate of 40% or more and less than 70%) | 3 (Herbicidal rate of 40% or more and less than 70%) | 5 (Herbicidal rate of 90% or more (almost completely withered)) | 5 (Herbicidal rate of 90% or more (almost completely withered)) | 0 (Herbicidal rate of 5% or less (almost no effect)) | 0 (Herbicidal rate of 5% or less (almost no effect)) | 0 (Herbicidal rate of 5% or less (almost no effect)) | 0 (Herbicidal rate of 5% or less (almost no effect)) | 0 (Herbicidal rate of 5% or less (almost no effect)) | 2 (Herbicidal rate of 20% or more and less than 40%) | 3 (Herbicidal rate of 40% or more and less than 70%) | 3 (Herbicidal rate of 40% or more and less than 70%) | 0 (Herbicidal rate of 5% or less (almost no effect)) | 3 (Herbicidal rate of 40% or more and less than 70%) | 5 (Herbicidal rate of 90% or more (almost completely withered)) | 4 (Herbicidal rate of 70% or more and less than 90%) | 4 (Herbicidal rate of 70% or more and less than 90%) | 5 (Herbicidal rate of 90% or more (almost completely withered)) | 0 (Herbicidal rate of 5% or less (almost no effect)) | 5 (Herbicidal rate of 90% or more (almost completely withered)) | O: lambsquarters, herbicidal effect (criteria 0-5) [21]: 5 (Herbicidal rate of 90% or more (almost completely withered)); R: persian speedwell, herbicidal effect (criteria 0-5) [22]: 5 (Herbicidal rate of 90% or more (almost completely withered)) |
| Cc1nn(C)c(=O)c(-c2c(-c3ccc(OC(F)F)cc3)sc3ccc(F)cc23)c1OCC(=O)c1ccccc1 [2-305] | 3 (Herbicidal rate of 40% or more and less than 70%) | 3 (Herbicidal rate of 40% or more and less than 70%) | 5 (Herbicidal rate of 90% or more (almost completely withered)) | 3 (Herbicidal rate of 40% or more and less than 70%) | 0 (Herbicidal rate of 5% or less (almost no effect)) | 0 (Herbicidal rate of 5% or less (almost no effect)) | 0 (Herbicidal rate of 5% or less (almost no effect)) | 0 (Herbicidal rate of 5% or less (almost no effect)) | 0 (Herbicidal rate of 5% or less (almost no effect)) | 1 (Herbicidal rate of 5% or more and less than 20%) | 4 (Herbicidal rate of 70% or more and less than 90%) | 3 (Herbicidal rate of 40% or more and less than 70%) | 1 (Herbicidal rate of 5% or more and less than 20%) | 1 (Herbicidal rate of 5% or more and less than 20%) | 5 (Herbicidal rate of 90% or more (almost completely withered)) | 1 (Herbicidal rate of 5% or more and less than 20%) | 0 (Herbicidal rate of 5% or less (almost no effect)) | 4 (Herbicidal rate of 70% or more and less than 90%) | 1 (Herbicidal rate of 5% or more and less than 20%) | 5 (Herbicidal rate of 90% or more (almost completely withered)) | O: lambsquarters, herbicidal effect (criteria 0-5) [21]: 5 (Herbicidal rate of 90% or more (almost completely withered)); R: persian speedwell, herbicidal effect (criteria 0-5) [22]: 5 (Herbicidal rate of 90% or more (almost completely withered)) |
| Cc1nn(C)c(=O)c(-c2c(-c3ccc(O)cc3)sc3ccc(F)cc23)c1O [2-337] | 0 (Herbicidal rate of 5% or less (almost no effect)) | 2 (Herbicidal rate of 20% or more and less than 40%) | 3 (Herbicidal rate of 40% or more and less than 70%) | 3 (Herbicidal rate of 40% or more and less than 70%) | 0 (Herbicidal rate of 5% or less (almost no effect)) | 0 (Herbicidal rate of 5% or less (almost no effect)) | 0 (Herbicidal rate of 5% or less (almost no effect)) | 0 (Herbicidal rate of 5% or less (almost no effect)) | 0 (Herbicidal rate of 5% or less (almost no effect)) | 0 (Herbicidal rate of 5% or less (almost no effect)) | 0 (Herbicidal rate of 5% or less (almost no effect)) | 0 (Herbicidal rate of 5% or less (almost no effect)) | 3 (Herbicidal rate of 40% or more and less than 70%) | 0 (Herbicidal rate of 5% or less (almost no effect)) | 0 (Herbicidal rate of 5% or less (almost no effect)) | 0 (Herbicidal rate of 5% or less (almost no effect)) | 0 (Herbicidal rate of 5% or less (almost no effect)) | 0 (Herbicidal rate of 5% or less (almost no effect)) | 0 (Herbicidal rate of 5% or less (almost no effect)) | 4 (Herbicidal rate of 70% or more and less than 90%) | O: lambsquarters, herbicidal effect (criteria 0-5) [21]: 3 (Herbicidal rate of 40% or more and less than 70%); R: persian speedwell, herbicidal effect (criteria 0-5) [22]: 5 (Herbicidal rate of 90% or more (almost completely withered)) |
